Where “and” joins values, the source holds several entries; their conditions need not be identical. Equal entries are not always repeated. Where two headings read alike, the source gives them in different places.
Tests used:
Rats: Wistar femelles [1] = test: Atherogenic diet (modified Aubert technique): histopathological examination; assay type: in vivo, Rat Wistar; details: 100 mg/kg; three parameters scored relative to Clofibrate
From the text: La technique utilisée est celle, légèrement modifiée, de AUBERT D., FERAUD J.C., LACAZE B., PEPINO., PANAK E. et PODESTA M. "Athérogénèse expérimentale chez le Rat Wistar". ATHEROSCLEROSIS 2Q (1974) 263 - 280.
(§1) • - Rats: Wistar femelles, E.O.P.S. en provenance de l'élevage EVIC-CEBA. • - Poids corporel: 160 180 g au départ de l'étude • - Alimentation: UAR A03, enrichi en cholestérol (0,5 %) et en Acide chloique (0,5 %). • - Eau de boisson: eau de ville. • - 15 animaux par lot et par cage MAKROLON SAFI® de 59 x 38,5 cm sur litière de copeaux de bois blanc dépoussiérés. • - Cages placées dans un module animalerie climatisé (20°C * 1°C), à l'humidité constante (50 % ± 10 %). Durée d'éclairement: 12 heures par jour (7 h à 19 h). • - Administration des produits: Après 15 jours de régime athéromateux, on leur administre par voie orale pendant 4 jours 250 000 Ul/kg de vitamine D2 (Stérogyl 15 H) en solution dans l'huile d'olive. On administre ensuite les produits à étudier pendant 4 semaines dès la fin de l'administration de l'agent lésionnel.
Les aortes, les foies et les coeurs sont fixés au Bouitaqueux et inclus à la paraffine après passage par les alcools à concentration croissante et par le toluène.
Les foies sont colorés par la technique à l'hématéine-éosine. Les aortes sont colorées par: • - la technique à l'orcéine - vert lumière afin de mettre en évidence les altérations structurales des lames élastiques. • - la technique à l'acide périodique plus réactif de Schiff pour déceler les dépôts de mucopolysaccharides, • - la technique à l'hématéine plus éosine afin de mettre en évidence les dépôts de calcium.
L'intensité des altérations observées et le degré d'athéromatose sont indiquées par l'un des signes:
• - Pas d'athéromatose 0 • = Très léger degré d'athéromatose 0,5 • + Léger degré d'athéromatose 1 • ++ Moyen degré d'athéromatose 2 • +++Important degré d'athéromatose 3
Les zones athéromateuses sont dénombrées sur une longueur identique pour chacune des aortes examinées. […]

Souris SWISS = test: Acute toxicity, single administration, intraperitoneal route; assay type: in vivo; details: for DLO: DLO = Dose Maxima toujours tolérée
Experimental: (§2) Souris SWISS mâles et femelles de 22 à 25g de poids corporel. Animaux EOPS.
(§3) Sauf mention contraire précisée dans les tableaux de résultats, 10 animaux par dose, sexe et cage en MAKROLON SAFI@ de 40/25 cm. Litière de copeaux de bois blanc. Alimentation standard pour rats et souris UAR et eau ordinaire à volonté.
(§4) Ils sont administrés sans jeûne préalable: • - par voie digestive (intubation gastrique par sonde oesophagienne métallique) à raison de 0,5 ml ou 1 ml pour 20 g de poids corporel d'une suspension aqueuse à 3p.100 en gomme arabique du dérivé testé. • - par voie intrapéritonéale à raison de 0,5 ml ou 1 ml pour 20 g d'une suspension du dérivé testé dans le soluté isotonique de chlorure de sodium à 3p.100 en gomme arabique.
(§5) Pendant 6 heures après l'administration unique, puis tous les jours pendant 15 jours.
(§6) S'il y a lieu, les doses létales cinquante (DL50) sont calculées selon les méthodes de: • - Behrens et Karber (B.K.) • - Miller et Tainter (M.T.), cette dernière méthode permettant d'attribuer, pour le seuil de probabilité de P = 0,05 un intervalle de confiance aux DL 50.
(§7) En outre, sont déterminées les DLO et DL100. • - DLO = DMT: Dose Maxima toujours tolérée • - DL100 = DmM: Dose minima toujours Mortelle.

[2] = as above; assay type: in vivo; details: mouse, in vivo, ip; for mortality at 360 h: single dose; for LD50 at 360 h: read-out: DL50
Experimental: as §2, §3, §4, §5, §6, §7

Rats: Wistar femelles [3] = test: Atherogenic diet (modified Aubert technique): mortality, body weight, tolerance, overall score; assay type: in vivo, Rat Wistar; details: 100 mg/kg; for taux de mortalité: lots of 15 rats on atherogenic diet; for Score Total: sum of Biochimie, Risque athérogène, Macroscopie, Histologie
Experimental: as §1
L'étude porte sur 5 Lots de 15 rats (tableau N° IV)
• - Le comportement et l'[…] pondérale des animaux sont étudiés par l'observation quotidienne et les pesées hebdomadaires. L'étude de l'évolution pondérale ne montre pas de différence significative entre les différents lots. C'est un indice de bonne tolérance du traitement. • - La moralité est notée dans chaque lot; elle peut atteindre 30 % des animaux ce qui nécessite des lots de 15 animaux. L'administration chronique de 100 mg/kg de Clofibrate correspond à la dose maximale tolérée par le Rat sain selon nos expériences personnelles.
Les scores obtenus par les différents produits étudiés sont les suivants (Tableau V)

For `COc1ccc(C(=O)CC2(O)C(=O)c3ccccc3C2=O)cc1OC` [Produit de l'invention, 2-[(3,4-dimethoxybenzoyl)methyl] 2-hydroxy 1,3-dioxo indane], the Histologie score (Rats: Wistar femelles [1]) was 1.3 and 1.32, the DLO (Souris SWISS; IP, Souris Femelles) was 2000 mg/kg and the DLO (Souris SWISS; IP, Souris Mâles) was 2000 mg/kg. The “La mort survient par arrêt respiratoire en” value (Souris SWISS; IP, time to death after injection) was 24 - 48 heures, the mortality at 360 h ([2]; 2000 mg/kg, 2000 mg/kg IP, read-out: Létalite sur 10 souris Femelles) was 0% and the mortality at 360 h ([2]; 2000 mg/kg, 2000 mg/kg IP, read-out: Létalite sur 10 souris Mâles) was 0%. For the same molecule, the mortality at 360 h ([2]; 2500 mg/kg, 2500 mg/kg IP, read-out: Létalite sur 10 souris Femelles) was 10%, the mortality at 360 h ([2]; 2500 mg/kg, 2500 mg/kg IP, read-out: Létalite sur 10 souris Mâles) was 10% and the mortality at 360 h ([2]; 3000 mg/kg, 3000 mg/kg IP, read-out: Létalite sur 10 souris Femelles) was 60%. It also gave a mortality at 360 h ([2]; 3000 mg/kg, 3000 mg/kg IP, read-out: Létalite sur 10 souris Mâles) of 30%, a mortality at 360 h ([2]; 3500 mg/kg, 3500 mg/kg IP, read-out: Létalite sur 10 souris Femelles) of 80% and a mortality at 360 h ([2]; 3500 mg/kg, 3500 mg/kg IP, read-out: Létalite sur 10 souris Mâles) of 50%. It also gave a mortality at 360 h ([2]; 4000 mg/kg, 4000 mg/kg IP, read-out: Létalite sur 10 souris Femelles) of 100%, a mortality at 360 h ([2]; 4000 mg/kg, 4000 mg/kg IP, read-out: Létalite sur 10 souris Mâles) of 80% and a mortality at 360 h ([2]; 4500 mg/kg, 4500 mg/kg IP, read-out: Létalite sur 10 souris Femelles) of 100%. For the same molecule, the mortality at 360 h ([2]; 4500 mg/kg, 4500 mg/kg IP, read-out: Létalite sur 10 souris Mâles) was 100%, the mortality at 360 h ([2]; 5000 mg/kg, 5000 mg/kg IP, read-out: Létalite sur 10 souris Femelles) was 100% and the mortality at 360 h ([2]; 5000 mg/kg, 5000 mg/kg IP, read-out: Létalite sur 10 souris Mâles) was 100%. The LD50 at 360 h ([2]; Souris Femelles, method Behrens et Karber (B.K.)) was 3000 mg/kg, the LD50 at 360 h ([2]; Souris Femelles, method Miller et Tainter (M.T.), confidence interval P = 0,05) was 3000 ± 145 mg/kg and the LD50 at 360 h ([2]; Souris Mâles, method Behrens et Karber (B.K.)) was 3400 mg/kg. The LD50 at 360 h ([2]; Souris Mâles, method Miller et Tainter (M.T.), confidence interval P = 0,05) was 3350 ± 190 mg/kg, the LD50 at 360 h ([2]; voie intrapéritonéale, sex not specified, "de l'ordre de") was ~3000 mg/kg and the “taux de mortalité” value (Rats: Wistar femelles [3]) was 2/15. The “Score Total” value (Rats: Wistar femelles [3]) was 10.46.

In the case of `CCOC(=O)C(C)(C)Oc1ccc(Cl)cc1` [Clofibrate], the Histologie score (Rats: Wistar femelles [1]) is reported as 3.00, the DL50 (Souris SWISS; mouse, in vivo, ip, 21600 min) is reported as ~1700 mg/kg and the LD50 at 360 h ([2]; voie intrapéritonéale, mâles, "de l'ordre de") is reported as ~1850 mg/kg. For the same molecule, the “taux de mortalité” value (Rats: Wistar femelles [3]) was 4/15 and the “Score Total” value (Rats: Wistar femelles [3]) was 13.00.

— patent publication EP0167553B1, “NEW THERAPEUTICAL APPLICATION OF AN INDANE DIONE DERIVATIVE AND PHARMACEUTICAL COMPOSITIONS INTENDED TO SAID UTILIZATION” (priority 1983, dated 1985)
